# Source: article PMC6287599, “2,6-Bis(2-Benzimidazolyl)Pyridine (BBP) Is a Potent and Selective Inhibitor of Small Conductance Calcium-Activated Potassium (SK) Channels” (Frontiers in Pharmacology, 2018)
# What was measured:
# [1] = biological target: T1, hSK3 WT (Homo sapiens, UniProt Q9UGI6); test: Manual whole cell patch clamp, HEK293 transiently transfected with hSK3 WT; assay type: cell-based; settings: BBP 1 μM, compared to positive control bicuculline methiodide 100 μM, n = 5, read-out: Inhibition of hSK3 current
# T1 construct: expressed in transfected cells; host or cells: HEK293 (transient, co-transfected with eGFP)
# Protocol: (§1) HEK293 cells were transiently co-transfected with the plasmid of interest (hBK, hSK1, hSK2, hSK3 WT, rSK3 H491N, or hIK) and eGFP using standard Lipofectamine™ 2000 (Thermo Fisher Scientific, Waltham, Massachussets, USA) transfection protocols. After transfection, cells were incubated overnight before the experiments.
# (§2) Manual patch clamp experiments were performed at room temperature in the whole cell configuration with a HEKA EPC9 amplifier and the Patchmaster software (HEKA Elektronik, Ludwigshafen, Germany). All currents were elicited every 2 s using an incremental 200 ms voltage-ramp protocol starting at −80 mV and finishing at +80 mV from a holding potential of 0 mV. […] Currents were measured using the same solutions as the ones used for automated patch clamp, with symmetrical potassium concentrations and a free intracellular calcium concentration of 400 nM. […]
# (§3) To assess the effect of BBP on other calcium-activated potassium channels (hBK, hSK3 WT, rSK3 H491N, and hIK), each individual current was first normalized to its cell size using membrane's capacitance (pA/pF) before statistical analysis. […] Statistical significance between saline and the effect of both BBP and the corresponding reference compound was determined for each channel using one-way ANOVA analysis. […]
# [2] = test system: all SK channel subtypes; test: Manual patch clamp, summary over all SK channel subtypes; assay type: cell-based, human; settings: BBP 1 μM
# Protocol: as §1, §2, §3
# [3] = biological target: hSK2 (Homo sapiens, UniProt Q9H2S1); test: Automated patch clamp (QPatch 16), whole cell, stable HEK293 cell line expressing hSK2; assay type: cell-based; settings: HEK stable line, 400 nM free intracellular calcium, mean ± SEM, n = 8
# Protocol: Three different stable HEK293 cell lines expressing hSK1, hSK2 or hSK3 (NeuroSearch A/S, Ballerup, Denmark) and a CHO stable cell line expressing hERG (University of Copenhagen, Copenhagen, Denmark) were used for automated patch clamp. These cells were cultivated and prepared as previously described (Skarsfeldt et al., [2016]).
# Automated patch clamp (QPatch 16, Sophion, Denmark) on SK-expressing HEK293 cell lines was conducted as previously described (Simó-Vicens et al., [2017b]). Briefly, SK currents were elicited by voltage-ramps starting at −80 mV and finishing at +80 mV from a holding potential of 0 mV. Extracellular solution contained 0.1 mM CaCl2, 3 mM MgCl2, 154 mM KCl, 10 mM HEPES and 10 mM glucose with pH 7.4. Intracellular solution for SK experiments contained 8.106 mM CaCl2 (final free calcium concentration of 400 nM), 1.167 mM MgCl2, 10 mM EGTA, 154 mM KCl, 10 mM HEPES, 31.25/ 10 mM KOH/EGTA and 15 mM KOH with pH 7.2. Automated patch clamp on hERG-expressing CHO cell line was performed also as previously described (Skarsfeldt et al., [2016]).
# Individual IC50 values were calculated for each cell with the built-in nonlinear fit log(inhibitor) vs. normalized response equation:
# Where Y is the normalized response, from 100, corresponding to current recorded during saline perfusion, down to 0, corresponding to currents recorded in the presence of bicuculline methiodide 100 μM. […]
# [4] = biological target: hSK1 (Homo sapiens, UniProt Q92952); test: Manual whole cell patch clamp, HEK293 transiently transfected with hSK1; assay type: cell-based; settings: BBP 1 μM, compared to positive control bicuculline methiodide 100 μM, n = 6, read-out: Inhibition of hSK1 current
# Protocol: as §1, §2, §3
structure (smiles),measurement,setting,value
"c1cc(-c2nc3ccccc3[nH]2)nc(-c2nc3ccccc3[nH]2)c1 [BBP, 2,6-Bis(2-benzimidazolyl)pyridine]",inhibition at 1 µM,[1],92.5 ± 2.3%
same,Effect on all SK currents (in words),[2],totally inhibited
same,Voltage dependence of inhibition (−80 vs +80 mV),[2],no significant differences
same,IC50,[3],400 ± 100 nM
same,inhibition at 1 µM,[4],93.7 ± 1.6%
